In article PMC5671655, “LASSBio-897 Reduces Lung Injury Induced by Silica Particles in Mice: Potential Interaction with the A2A Receptor” (Frontiers in Pharmacology, 2017):
pIC50: −log10 of the molar value.

Tests used:
adenosine A2A receptor [1] = target: T1, adenosine A2A receptor (Homo sapiens, UniProt P29274); assay: radioligand competition with [3H]-adenosine; type: binding
T1 construct: gene ADORA2A; membrane preparation of HEK293 cells overexpressing the human A2A receptors

adenosine A2A receptor [2] = target: T2, adenosine A2A receptor (Rattus norvegicus, UniProt P30543); assay: radioligand competition with [3H]-CGS21680; type: binding
T2 construct: gene Adora2a; rat striatum membrane preparation

5-HT transporter = target: T3, 5-HT transporter (Homo sapiens, UniProt P31645); assay: Cerep Diversity Profile screen, single concentration […]
T3 construct: gene SLC6A4
T3 sequence (P31645 whole entry): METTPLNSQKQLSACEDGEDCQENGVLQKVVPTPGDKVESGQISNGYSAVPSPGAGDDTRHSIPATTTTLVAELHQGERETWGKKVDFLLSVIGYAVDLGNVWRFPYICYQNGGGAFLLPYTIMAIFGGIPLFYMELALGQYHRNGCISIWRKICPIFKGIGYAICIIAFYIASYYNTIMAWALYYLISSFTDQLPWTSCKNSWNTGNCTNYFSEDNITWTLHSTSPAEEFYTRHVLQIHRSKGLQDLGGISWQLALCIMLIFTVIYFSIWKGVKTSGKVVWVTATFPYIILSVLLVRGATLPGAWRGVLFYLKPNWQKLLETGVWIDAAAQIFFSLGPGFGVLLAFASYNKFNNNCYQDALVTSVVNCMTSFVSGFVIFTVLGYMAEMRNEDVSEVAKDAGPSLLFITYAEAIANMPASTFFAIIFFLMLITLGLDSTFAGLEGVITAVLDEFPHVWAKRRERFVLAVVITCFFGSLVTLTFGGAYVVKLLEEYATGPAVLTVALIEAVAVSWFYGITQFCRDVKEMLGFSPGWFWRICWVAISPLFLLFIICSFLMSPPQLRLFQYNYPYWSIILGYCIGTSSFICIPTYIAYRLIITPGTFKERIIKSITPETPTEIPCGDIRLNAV

T2 sequence (P30543 whole entry): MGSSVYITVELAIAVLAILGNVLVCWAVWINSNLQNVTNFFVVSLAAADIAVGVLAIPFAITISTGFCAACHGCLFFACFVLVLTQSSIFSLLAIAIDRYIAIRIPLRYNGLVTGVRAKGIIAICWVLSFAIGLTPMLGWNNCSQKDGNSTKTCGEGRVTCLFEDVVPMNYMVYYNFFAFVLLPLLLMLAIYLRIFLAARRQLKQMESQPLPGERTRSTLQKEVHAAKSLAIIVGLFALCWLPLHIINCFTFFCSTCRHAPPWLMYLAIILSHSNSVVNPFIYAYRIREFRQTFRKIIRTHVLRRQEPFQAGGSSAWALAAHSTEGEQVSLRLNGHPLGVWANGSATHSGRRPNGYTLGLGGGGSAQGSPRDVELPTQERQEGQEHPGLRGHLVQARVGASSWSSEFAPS
T1 sequence (P29274 whole entry): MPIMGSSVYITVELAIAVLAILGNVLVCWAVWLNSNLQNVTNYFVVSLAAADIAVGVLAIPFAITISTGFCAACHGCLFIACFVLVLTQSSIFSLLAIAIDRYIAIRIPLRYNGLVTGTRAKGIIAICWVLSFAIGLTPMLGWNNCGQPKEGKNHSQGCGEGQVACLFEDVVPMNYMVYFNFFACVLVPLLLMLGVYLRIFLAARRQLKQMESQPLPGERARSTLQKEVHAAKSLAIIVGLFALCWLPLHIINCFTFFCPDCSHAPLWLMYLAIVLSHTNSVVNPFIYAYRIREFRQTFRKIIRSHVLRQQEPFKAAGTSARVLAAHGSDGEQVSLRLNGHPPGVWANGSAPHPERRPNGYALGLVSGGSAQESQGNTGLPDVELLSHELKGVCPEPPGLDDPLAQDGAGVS

With `O=C(N/N=C/c1ccsc1)c1ccc2c(c1)OCO2` [LASSBio-897] the pIC50 (adenosine A2A receptor [1]) was 4.94, the pIC50 (adenosine A2A receptor [2]) was 5.03 and the inhibition at 10 µM (5-HT transporter) was 56%.
